“And” between values parts separate entries of the source, which are not always exact repeats. Identical values can stand only once. “Also recorded” adds a separate entry of the source. Counter-ions that a name gives are not always drawn. One block for each compound: values may come before it.
What was measured:
[1] = (^14C)DMF distribution viewed in sagittal section (QWBA); type: in vivo, mice; conditions: 10 and 60 minutes
[2] = MMF exposure in plasma and tissues after DMF PO/IV or MMF IV (LC-MS/MS); type: in vivo, C57BL/6 mice
Description: Aliquots (25 μL) of either plasma or tissue homogenate samples were extracted by protein precipitation with acetonitrile containing 4C13-MMF as the internal standard. For tissue samples, aliquots of homogenization solution (plasma with 12.5 mg/mL of NaF) were added to the tissue samples. The tissue samples were homogenized at 6.5 m/s for 60 seconds on a Fast Prep Tissue Homogenizer prior to protein precipitation. Concentrations of MMF in plasma, brain, jejunum and kidney samples were determined using qualified LC-MS/MS assays in the respective matrices. Data collections and integrations were accomplished using an API 5500 triple quadrupole mass spectrometer with a turbo ion spray interface (AB Sciex, Foster City, Calif.), and Analyst software (version 1.6.1). The peak area ratios of MMF relative to its internal standard were used to construct a standard curve using a quadratic regression with a 1/x^2 weighting. The lower limits of quantitation (LLOQ) were 1 ng/mL for the three tissue assays and 10 ng/mL for the plasma assay, respectively. The performances of the assays were monitored by the precision and accuracy of the standards and quality control samples.
MMF exposure levels were evaluated 10 minutes and 2 hours after dosing, while pharmacodynamic transcriptional responses were analyzed at 2 hours post-dose.
(§1) At the 10-minute time point, 4 animals from each group were sacrificed, with plasma and tissues (brain, jejunum and kidney) collected to determine MMF exposure. Two hours after dosing, the remaining 4 animals were sacrificed, and plasma and tissues were collected. Tissue samples from the 2-hour time point were divided, with half of each sample used for MMF exposure analysis, and half for RNA extraction and qRT-PCR to evaluate the expression of Nrf2 target genes.
MMF exposure levels were evaluated 10 minutes and 2 hours after dosing, while transcriptional pharmacodynamic responses were analyzed at 2 and 6 hours post-dose. A complete blood count (CBC) with differential panel was performed at 10 minutes, 2 hours, and 6 hours post-dose.
(§2) Ten minutes after dosing, 4 animals from each group were sacrificed, and plasma and tissues (brain, kidney, jejunum and spleen) were collected to quantify MMF exposure levels, as well as whole blood to perform CBC. Two hours post-dose, another 4 animals from each group were sacrificed, and plasma, whole blood, and tissues were collected. Tissue samples from the 2-hour time point were split, with half of each sample used for MMF exposure analysis, and half for RNA extraction/qRT-PCR to evaluate the expression of Nrf2 target genes. Six hours after dosing, the last 4 animals from each group were sacrificed, and whole blood and tissues were collected.

Hmox1 = assay: qRT-PCR transcript fold-change in tissues after DMF or MMF dosing; type: in vivo, C57BL/6 mice; conditions: MMF IV 30 mpk, Study 2
Description: (§3) For RNA preparation, frozen tissues were placed in 2 mL RNAse-free 96-well blocks with 1.5 mL QIAzol Lysis Reagent (QIAgen) and a 3.2 mm stainless steel bead (BioSpec Products, Bartlesville, Okla.). Tissues were disrupted for four cycles of 45 seconds in a Mini-Beadbeater (Biospec Products). RNA was extracted with chloroform and the aqueous phase was mixed with an equal volume of 70% ethanol. Extracted RNA was applied to RNeasy 96 plates and purified by the spin method according to the manufacturer's protocol (RNeasy 96 Universal Tissue Protocol, QIAgen, Hilden Germany).
(§4) Samples were reverse-transcribed into cDNA according to the manufacturer protocols using the High Capacity cDNA Reverse Transcription Kit (Life Technologies, Carlsbad, Calif.) and analyzed by qRT-PCR. Mouse target gene primers and 6-FAM™ dye-labeled TaqMan® MGB™ probes (Life Technologies) were used. Reactions containing 100 ng of cDNA, 900 nM of each primer, and 250 nM TaqMan probes were cycled on a QuantStudio 12 k-flex system (Life Technologies) once for 10 minutes at 95° C., followed by 40 cycles of 95° C. for 10 seconds and 60° C. for 1 minute. All samples were measured in triplicate with Gapdh as a normalizing gene. Taqman primer/probe sets from Life Technologies included: Akr1b8 (Mm00484314_m1); Gapdh (Mm03302249_g1); Gclc (Mm00802655_m1); Hmox1 (Mm00516005_m1); Nqo1 (Mm01253561_m1); and Osgin1 (Mm00660947_m1). Comparative CT method was used to calculate fold changes and samples were normalized relative to time-matched vehicle control.
as §1, §2
(§5) Table 7 is a summary table of fold changes, relative to time-matched vehicle controls, for indicated genes in indicated tissues. Values indicate the mean fold-change±the standard deviation (n=4). Changes that were significant from vehicle are indicated in bold (one way ANOVA with Tukey's multiple comparison test).
(§6) A CBC with differential panel was performed at 10 minutes post-last dose via facial vein bleeding, and at 2 hours after the last dose, pharmacodynamic Nrf2 transcriptional responses were analyzed in tissues from the same animals. Histopathology was also performed on regions of the tail in a pilot toxicology study.

Akr1b8 = assay: as above; type: in vivo, C57BL/6 mice; conditions: MMF IV 30 mpk, Study 2
Description: as §3, §4, §1, §2, §5, §6

Gclc = assay: as above; type: in vivo, C57BL/6 mice; conditions: MMF IV 30 mpk, Study 2
Description: as §3, §4, §1, §2, §5, §6

blood cell populations = assay: Complete blood count (CBC) with differential after IV dosing; type: in vivo, C57BL/6 mice; conditions: Study 2, single IV dose DMF 30 mg/kg or MMF 27.08 mg/kg
Description: Whole blood samples (250 μL) were collected in EDTA tubes at indicated time points after dosing, and were maintained at 4° C. until analysis for CBC with differential at Charles River Laboratories (analyzed within 24-36 hours from time of collection).
Statistical analyses on blood cell fractions were not completed due to the overall variability and low number of replicates for the samples in this pilot study.
as §6

Osgin1 = assay: qRT-PCR transcript fold-change in tissues after DMF or MMF dosing; type: in vivo, C57BL/6 mice; conditions: MMF IV 30 mpk, Study 2; for Osgin1 fold change vs vehicle, jejunum / Osgin1 fold change vs vehicle, kidney: 30 mg/kg
Description: as §3
as §4, with “control. […]” for “control.”
as §2
as §5, with “test). […]” for “test).”

Nqo1 = assay: as above; type: in vivo, C57BL/6 mice; conditions: MMF IV 30 mpk, Study 2; for Nqo1 fold change vs vehicle, jejunum / Nqo1 fold change vs vehicle, kidney: 30 mg/kg
Description: as §3
as §4, with “control. […]” for “control.”
as §2
as §5, with “test). […]” for “test).”

[3] = PET/MR imaging of (^11C)DMF tissue distribution after oral or intravenous administration; type: in vivo, CD1 mice
Description: To determine the localization and retention of DMF administered by different routes in vivo, mice were administered isotopically labeled DMF either orally or through tail vein injections. […] Acquired images from PET experiments were analyzed using inviCRO software. […] All animals were anaesthetized during image acquisition. […] The imaging data from the three groups of treated animals were quantified according to tissue type using inviCRO image analysis software. Regions of Interest (ROIs) for the brain, heart, liver, kidneys, scapular muscle, and whole body were defined by fitting ellipsoids of fixed volume to the regions. The scapular muscle ROI was hand-drawn and is not representative of all mouse muscle, but is composed of only a small region of its respective ROI.

(^14C) signal in sagittal section ([1]; PO 0.5 mg/kg): had less signal in the brain
Compound: COC(=O)/[14CH]=[14CH]/C(=O)OC [(^14C)DMF, [2,3-^14C] DMF]
(^14C) signal in sagittal section ([1]; IV 0.5 mg/kg): displayed signal in the kidneys and brain

Kp at 10 min ([2]; C57BL/6, mouse, brain, Study 2, MMF IV 27.08 mg/kg, 10 minutes, read-out: Brain to plasma MMF ratio (tissue [MMF]/plasma [MMF]*100)): 7.2 ± 3
concentration at 10 min ([2]; C57BL/6, mouse, plasma, Study 2, MMF IV 27.08 mg/kg, 10 minutes, n=4, read-out: MMF level in plasma): 13000 ng/mL and 100 µM
Difference in brain MMF levels, animals receiving MMF compared to DMF via IV dosing ([2]; Study 2, 10 minutes, not significant): 31%
Compound: COC(=O)/C=C/C(=O)O [MMF, monomethyl fumarate]
MMF level in plasma or any tissues ([2]; Study 2, 2 hours, DMF 30 mg/kg or MMF 27.08 mg/kg IV): no detectable MMF in plasma or in any tissues
MMF levels in kidney, jejunum and spleen, DMF versus MMF ([2]; Study 2, IV, 10 minutes): no significant differences were noted in MMF levels
Tissue penetration ratios in kidney, jejunum or spleen, DMF versus MMF ([2]; Study 2, IV, 10 minutes): no significant differences in tissue penetration ratios
Hmox1 fold change vs vehicle, brain (Hmox1; 2 hr): 1.0 ± 0.1 fold
Hmox1 fold change vs vehicle, jejunum (Hmox1; 2 hr): 0.9 ± 0.1 fold
Hmox1 fold change vs vehicle, kidney (Hmox1; 2 hr): 1.6 ± 0.3 fold
Hmox1 fold change vs vehicle, brain (Hmox1; 6 hr): 1.0 ± 0.0 fold
Hmox1 fold change vs vehicle, jejunum (Hmox1; 6 hr): 1.1 ± 0.1 fold
Hmox1 fold change vs vehicle, kidney (Hmox1; 6 hr): 3.3 ± 0.8 fold
Akr1b8 fold change vs vehicle, brain (Akr1b8; 2 hr): 1.0 ± 0.2 fold
Akr1b8 fold change vs vehicle, kidney (Akr1b8; 2 hr): 1.2 ± 0.1 fold
Akr1b8 fold change vs vehicle, jejunum (Akr1b8; 2 hr, 30 mg/kg): 2.4±0.7 fold
Akr1b8 fold change vs vehicle, brain (Akr1b8; 6 hr): 1.0 ± 0.1 fold
Akr1b8 fold change vs vehicle, jejunum (Akr1b8; 6 hr): 2.9 ± 1.2 fold
Akr1b8 fold change vs vehicle, kidney (Akr1b8; 6 hr, 30 mg/kg): 1.5±0.1 fold
Gclc fold change vs vehicle, brain (Gclc; 2 hr): 1.0 ± 0.0 fold
Gclc fold change vs vehicle, jejunum (Gclc; 2 hr): 1.2 ± 0.3 fold
Gclc fold change vs vehicle, kidney (Gclc; 2 hr, 30 mg/kg): 1.9±0.7 fold
Gclc fold change vs vehicle, brain (Gclc; 6 hr): 1.0 ± 0.1 fold
Gclc fold change vs vehicle, jejunum (Gclc; 6 hr, 30 mg/kg): 1.5±0.1 fold
Gclc fold change vs vehicle, kidney (Gclc; 6 hr, 30 mg/kg): 2.3±0.6 fold
Reduction in white blood cell counts (neutrophils, lymphocytes, monocytes, eosinophils, basophils) (blood cell populations; 2-hour time point): did not specifically coincide with DMF or MMF treatment
Effect on red blood cells, hemoglobin, hematocrit, mean corpuscular volume, platelets (blood cell populations; 10 minutes, 2 and 6 hours): no effect on red blood cells, hemoglobin, hematocrit, mean corpuscular volume, or platelets
Osgin1 fold change vs vehicle, brain (Osgin1; 2 hr): 1.9 ± 0.3 fold
Osgin1 fold change vs vehicle, jejunum (Osgin1; 2 hr): 1.6±0.1 fold
Osgin1 fold change vs vehicle, kidney (Osgin1; 2 hr): 2.4±0.8 fold
Osgin1 fold change vs vehicle, brain (Osgin1; 6 hr): 1.1 ± 0.1 fold
Osgin1 fold change vs vehicle, jejunum (Osgin1; 6 hr): 1.2±0.1 fold
Osgin1 fold change vs vehicle, kidney (Osgin1; 6 hr): 1.4±0.0 fold
Nqo1 fold change vs vehicle, brain (Nqo1; 2 hr): 1.1 ± 0.1 fold
Nqo1 fold change vs vehicle, jejunum (Nqo1; 2 hr): 1.5±0.2 fold
Nqo1 fold change vs vehicle, kidney (Nqo1; 2 hr): 1.6±0.4 fold
Nqo1 fold change vs vehicle, brain (Nqo1; 6 hr): 1.2 ± 0.1 fold
Nqo1 fold change vs vehicle, jejunum (Nqo1; 6 hr): 1.7±0.1 fold
Nqo1 fold change vs vehicle, kidney (Nqo1; 6 hr): 2.3±0.3 fold

Compound: (^11C) dimethyl fumarate [(^11C)DMF]
PET signal distribution in tissues ([3]; IV 0.5 mg/kg, imaged up to 90 minutes, 0.5 mg/kg): positive signal throughout various tissues of the body including the brain and heart; also recorded: signal was higher in most tissues; also recorded: localized in numerous tissues, including the brain, as early as 30 seconds after administration
PET signal in brain regions ([3]; IV 0.5 mg/kg, 0.5 mg/kg): high levels of signal in all regions of the brain throughout the observation period; also recorded: all emitted a strong signal as compared to olfactory regions
PET signal in brain regions ([3]; PO 0.5 mg/kg or 200 mg/kg): almost no signal was detected in any region; also recorded: significantly lower levels of signal throughout the brain
